Five compounds from US20210253626A1, “PRODRUGS OF FULVESTRANT” (KASHIV BIOSCIENCES, LLC, priority 2018, published 2021) can be followed below.

A short description of data set [1]: Thermodynamic solubility (Solubility Test Procedure II). Particulars: for solubility thermodynamic at 24 h: thermodynamic from solid.
Protocol: Solubility Test Procedure II:
Stock solutions of the test compounds and fulvestrant were prepared in phosphate buffered saline (PBS) pH 7.4 and sodium acetate buffer pH 4.0, which was incubated for 24 h at room temperature with constant mixing at 100 rpm in the same tube. After incubation, the tubes were centrifuged for 20 min. at 10000 rpm. Later 200 μL of sample was taken and filtered. The filtrate was analysed by HPLC-UV against 0.0012 mg/ml, 0.037 mg/mL, 0.3 mg/ml, 0.1 mg/ml and 1 mg/ml of dimethylsulfoxide (DMSO) stock.
Solubility (μg/ml)=[Peak area of sample/Peak area of standard]×Concentration of standard % Aqueous solubility: [Test solubility (μg/ml)/incubation concentration (μg/ml)]×100
The conditions of data set [2]: 4 h, pH 7.4.
Protocol: Solubility Test Procedure I:
(§1) A 50 mmol stock solution for each test compound was prepared using dimethyl sulfoxide. From this stock solution, a working solution of 1 mmol was prepared by diluting with dimethyl sulfoxide. The working solution of 1 mmol was then serially diluted using dimethyl sulfoxide. Then, 5-20 μl of stock solution is added to 1 ml of phosphate buffer solution of pH 7.4. The solution was then stirred for 4 h at 25° C. in order to reach equilibrium. After this incubation period, the solution was filtered using 0.45 micron PVDF injector filters to remove the insoluble fraction of the compound and subsequently filtrate is taken for quantification using UV Detector. The concentration of test sample was calculated using the linearity/calibration curve.
Another data set is described as follows: physchem. Particulars: 25 °C, pH 7.4, aqueous buffer, kinetic from dmso stock.
Data set [3] can be described thus: Kinetic solubility (Solubility Test Procedure I). Particulars: phosphate buffer, 25 °C, pH 7.4, aqueous buffer, kinetic from dmso stock.
Protocol: Solubility Test Procedure I:
as §1

Values after ≈ are worked out from the molar mass of the structure shown. Where a name gives a salt, the structure may show the parent alone.

Usually solubility stands for how much of the substance goes into solution per volume. A lower solubility goes with a poorly soluble substance. Broadly, the solubility (thermodynamic) is solubility found after equilibrating the solid with the medium.

Protocol for physchem: Solubility Test Procedure I:
as §1

As to `C[C@]12CC[C@@H]3c4ccc(OC(=O)N5CCC(N6CCCCC6)CC5)cc4C[C@@H](CCCCCCCCC[S+]([O-])CCCC(F)(F)C(F)(F)F)[C@H]3[C@@H]1CC[C@@H]2O` (stereo partly drawn) [Example 29, (7R,8R,9S,13S,14S,17S)-17-hydroxy-13-methyl-7-(9-((4,4,5,5,5-pentafluoropentyl)sulfinyl)nonyl)-7,8,9,11,12,13,14,15,16,17-decahydro-6H-cyclopenta[a]phenanthren-3-yl [1,4′-bipiperidine]-1′-carboxylate hydrochloride], in data set [1] (sodium acetate buffer pH 4.0, 24 h room temperature, test compound concentration 1 mg/mL, hydrochloride), the “Thermodynamic solubility (mg/mL) pH 4.0” value came out at 0.75 mg/mL.
As to `C[C@]12CC[C@@H]3c4ccc(OC(=O)CN5CCOCC5)cc4C[C@@H](CCCCCCCCC[S+]([O-])CCCC(F)(F)C(F)(F)F)[C@H]3[C@@H]1CC[C@@H]2O` (stereo partly drawn) [Example 10, (7R,8R,9S,13S,14S,17S)-17-hydroxy-13-methyl-7-(9-((4,4,5,5,5-pentafluoropentyl)sulfinyl)nonyl)-7,8,9,11,12,13,14,15,16,17-decahydro-6H-cyclopenta[a]phenanthren-3-yl 2-morpholinoacetate], in data set [2], the “Increase in solubility compare to fulvestrant (Fold)” value amounted to 32 Fold. Moreover, the solubility at 4 h in “physchem” came to 0.2 µM (≈ 0.147 µg/mL).
Turning to `C[C@]12CC[C@@H]3c4ccc(OC(=O)CN5CCCC5)cc4C[C@@H](CCCCCCCCC[S+]([O-])CCCC(F)(F)C(F)(F)F)[C@H]3[C@@H]1CC[C@@H]2O` (stereo partly drawn) [Example 8, (7R,8R,9S,13S,14S,17S)-17-hydroxy-13-methyl-7-(9-((4,4,5,5,5-pentafluoropentyl)sulfinyl)nonyl)-7,8,9,11,12,13,14,15,16,17-decahydro-6H-cyclopenta[a]phenanthren-3-yl 2-(pyrrolidin-1-yl)acetate], the “Increase in solubility compare to fulvestrant (Fold)” value in data set [2] is reported as 3500 Fold. This compound had a solubility at 4 h in “physchem” of 17.1 µM (≈ 12.3 µg/mL).
Taken in the same sequence, the figures for `C[C@]12CC[C@@H]3c4ccc(OC(=O)CCC(=O)O)cc4C[C@@H](CCCCCCCCC[S+]([O-])CCCC(F)(F)C(F)(F)F)[C@H]3[C@@H]1CC[C@@H]2O` (stereo partly drawn) [Example 5, 4-(((7R,8R,9S,13S,14S,17S)-17-hydroxy-13-methyl-7-(9-((4,4,5,5,5-pentafluoropentyl)sulfinyl)nonyl)-7,8,9,11,12,13,14,15,16,17-decahydro-6H-cyclopenta[a]phenanthren-3-yl)oxy)-4-oxobutanoic acid] were 295 Fold and 1.4 µM (≈ 0.99 µg/mL).
Take `C[C@]12CC[C@@H]3c4ccc(O)cc4C[C@@H](CCCCCCCCC[S+]([O-])CCCC(F)(F)C(F)(F)F)[C@H]3[C@@H]1CC[C@@H]2O` (stereo partly shown) [Fulvestrant]: in data set [3], the solubility at 4 h amounted to 0.005 µM (≈ 0.00303 µg/mL). For the same compound, the thermodynamic solubility at 24 h in data set [1] (phosphate buffered saline (PBS), pH 7.4, aqueous buffer) was 1.2 µg/mL (≈ 1.98 µM); in data set [1] (sodium acetate buffer, pH 4, aqueous buffer), 2.9 µg/mL (≈ 4.78 µM).
